How the values were obtained:
[1] = system: claudin-5 expression in mouse brain endothelial cells; experiment: Claudin-5 western blot and immunocytochemistry in brain endothelial cells after OGD; format: cell-based
Method: FIG. 11A includes a claudin-5 western blot of brain endothelial cells after OGD that were treated as labeled.
FIG. 11B includes plot showing the quantification of claudin-5 expression normalized to Ponceau S total protein stain for the samples show in FIG. 11A.
FIG. 11C includes images showing claudin-5 immunocytochemistry of WT mouse brain endothelial cells either just prior to (control) or 24 hours after OGD treated as labeled. Scale bar is 5 μm.

WT mice after MCAo = settings: mouse, in vivo
[2] = cited from earlier work

Row | Substance | claudin-5 levels compared with ATN-161 and normoxic control [1] | animal vital signs upon administration (WT mice after MCAo) | tolerability (signs of illness such as fur ruffling, weight differences) (WT mice after MCAo) | serum half-life ([2]; for some subjects) [h] | tissue distribution ([2]; in vivo) | safety of intravenous administration ([2]; intravenous)
1 | Ac-PhScN—NH2 | more effective than ATN-161 | – | – | – | – | –
2 | Ac-PHSCN-NH2 [ATN-161] | – | did not alter animal vital signs | well tolerated | 3 to 5 | high tissue distribution | can be safely administered intravenously
